# Results published in patent US20070191420A1, “Kinase inhibitors” (Devgen NV, priority 2004, published 2007).
# Structures can show the parent of a compound that is named as a salt.
# Legend:
# Assay in all cases: Fluorescence polarization (FP) PKC inhibition assay, Protein Kinase C Assay Kit, Red (Invitrogen)
# Type in all cases: biochemical
# PKC gamma = molecular target: T1, PKC gamma (Homo sapiens, UniProt P05129); details: enzyme 20 ng/ml, ATP 2.5 μM
# T1 construct: purchased Invitrogen 9343
# Procedure: (§1) The substrate used was […]
# (§2) To perform the assay, 2 μl of a solution of the compound to be tested in DMSO (at each concentration) was added to 6 μl of a solution of the enzyme in 10 mM HEPES, 5 mM dithiotreitol, 0.1% Triton X-100, pH 7,4.
# (§3) After incubating for 30 minutes at room temperature, 4 μl of a mixture of ATP and the protein substrate in 60 mM HEPES (pH7.4), 15 mM MgCl2, 0.3 mM CaCl2, 0.06% NP40 was added.
# (§4) After incubating for 80 minutes at room temperature, 3 μl of a mix solution of 500 mM EDTA (stop solution) and the Rhodamine-based PKC Red Tracer (from the Protein Kinase C Assay Kit) in BGG/phosphate buffer (pH7.4) with 0.02% NaN3 and 0.1% Triton X-100 was added and 5 μl of a the Anti-Phosphoserine antibody (also from the Protein Kinase C Assay Kit) in BGG/phosphate buffer (pH7.4) with 0.02% NaN3.
# (§5) The results were fitted to a curve using the XL-Fit algorithm and IC50 values were calculated for each fitted curve, again using the XL-Fit algorithm.
# PKC epsilon = molecular target: T2, PKC epsilon (Homo sapiens, UniProt Q02156); details: enzyme 10 ng/ml, ATP 2.5 μM
# T2 construct: purchased Invitrogen 6906
# T2 sequence (Q02156 1-737): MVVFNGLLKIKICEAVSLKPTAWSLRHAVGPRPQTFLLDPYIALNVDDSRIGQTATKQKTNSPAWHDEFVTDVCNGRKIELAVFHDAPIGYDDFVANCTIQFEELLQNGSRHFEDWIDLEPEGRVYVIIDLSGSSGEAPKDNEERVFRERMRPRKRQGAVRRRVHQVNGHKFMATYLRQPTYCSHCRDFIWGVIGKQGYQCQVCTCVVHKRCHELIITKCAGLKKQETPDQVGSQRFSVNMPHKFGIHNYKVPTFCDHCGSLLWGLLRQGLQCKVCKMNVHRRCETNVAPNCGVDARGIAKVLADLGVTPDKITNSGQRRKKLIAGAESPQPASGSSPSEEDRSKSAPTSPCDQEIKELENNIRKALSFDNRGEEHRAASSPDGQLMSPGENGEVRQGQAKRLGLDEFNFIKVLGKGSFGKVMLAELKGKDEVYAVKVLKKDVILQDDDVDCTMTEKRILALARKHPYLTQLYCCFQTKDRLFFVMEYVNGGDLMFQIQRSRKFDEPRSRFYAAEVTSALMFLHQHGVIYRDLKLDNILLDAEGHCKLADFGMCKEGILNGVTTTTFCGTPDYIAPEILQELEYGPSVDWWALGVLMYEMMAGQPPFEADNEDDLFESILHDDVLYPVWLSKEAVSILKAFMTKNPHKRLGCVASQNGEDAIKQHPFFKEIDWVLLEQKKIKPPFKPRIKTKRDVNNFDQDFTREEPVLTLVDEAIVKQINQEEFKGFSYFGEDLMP
# Procedure: as §1, §2, §3, §4, §5
# PKC theta = molecular target: T3, PKC theta (Homo sapiens, UniProt Q04759); details: enzyme 20 ng/ml, ATP 2.5 μM
# T3 construct: purchased Invitrogen 7101
# T3 sequence (Q04759 whole entry): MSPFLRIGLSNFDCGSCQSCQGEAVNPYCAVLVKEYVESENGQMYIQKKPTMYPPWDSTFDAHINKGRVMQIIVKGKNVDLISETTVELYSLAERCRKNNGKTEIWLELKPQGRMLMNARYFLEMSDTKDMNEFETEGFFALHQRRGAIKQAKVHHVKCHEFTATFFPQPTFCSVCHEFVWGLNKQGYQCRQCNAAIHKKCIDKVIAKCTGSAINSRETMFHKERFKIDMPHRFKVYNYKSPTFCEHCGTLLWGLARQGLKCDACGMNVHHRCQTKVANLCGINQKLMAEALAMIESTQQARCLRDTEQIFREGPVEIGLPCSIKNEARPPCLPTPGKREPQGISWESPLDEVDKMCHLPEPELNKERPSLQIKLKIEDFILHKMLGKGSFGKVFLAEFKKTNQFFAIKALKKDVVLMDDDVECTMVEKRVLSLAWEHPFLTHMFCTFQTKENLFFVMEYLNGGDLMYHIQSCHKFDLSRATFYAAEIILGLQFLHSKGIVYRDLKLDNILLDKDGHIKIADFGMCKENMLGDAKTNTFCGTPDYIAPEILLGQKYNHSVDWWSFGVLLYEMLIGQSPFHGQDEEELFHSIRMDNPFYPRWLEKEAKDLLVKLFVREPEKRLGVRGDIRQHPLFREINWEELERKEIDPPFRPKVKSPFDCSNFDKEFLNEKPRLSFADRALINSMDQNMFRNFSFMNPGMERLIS
# Procedure: as §1, §2, §3, §4, §5
# PKC zeta = molecular target: T4, PKC zeta (Homo sapiens, UniProt Q05513); details: enzyme 20 ng/ml, ATP 2.5 μM
# T4 construct: purchased Invitrogen 9232
# T4 sequence (Q05513 1-592): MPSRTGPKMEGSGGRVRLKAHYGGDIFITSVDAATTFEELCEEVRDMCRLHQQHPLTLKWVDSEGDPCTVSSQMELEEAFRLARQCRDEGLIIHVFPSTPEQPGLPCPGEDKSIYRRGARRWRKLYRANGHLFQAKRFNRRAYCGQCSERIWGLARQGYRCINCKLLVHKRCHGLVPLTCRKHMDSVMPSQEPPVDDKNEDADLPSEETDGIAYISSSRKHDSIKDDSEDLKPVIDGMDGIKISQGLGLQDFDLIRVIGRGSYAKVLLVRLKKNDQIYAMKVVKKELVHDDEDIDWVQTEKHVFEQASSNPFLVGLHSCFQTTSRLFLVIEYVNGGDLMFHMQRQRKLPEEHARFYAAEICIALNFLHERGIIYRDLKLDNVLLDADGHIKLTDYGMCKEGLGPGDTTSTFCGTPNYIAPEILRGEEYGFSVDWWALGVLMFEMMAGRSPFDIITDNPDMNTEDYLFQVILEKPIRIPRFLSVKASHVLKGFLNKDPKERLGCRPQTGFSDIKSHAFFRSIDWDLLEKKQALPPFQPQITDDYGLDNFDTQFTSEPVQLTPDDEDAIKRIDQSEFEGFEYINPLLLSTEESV
# Procedure: as §2, §3, §4, §5
IC50 (PKC gamma; substrate […] 1 μM) [µM],IC50 (PKC epsilon; substrate […] 1 μM) [µM],IC50 (PKC theta; substrate […] 1 μM) [µM],IC50 (PKC zeta; substrate […] 1 μM) [µM],Compound,IC50 (PKC gamma; substrate RFARKGSLRQKNV 1 μM) [µM],IC50 (PKC epsilon; substrate RFARKGSLRQKNV 1 μM) [µM],IC50 (PKC theta; substrate RFARKGSLRQKNV 1 μM) [µM],IC50 (PKC zeta; substrate RFARKGSLRQKNV 1 μM) [µM]
> 100,18.7,80.3,> 100,"COc1ccc(C(N)c2ccc(C(=O)Nc3ccncc3)cc2)cc1 (centres unmarked) [Compound 37, 4-[1-amino-(4-methoxyphenyl)-methyl]-N-pyridin-4-yl-benzamide]",,,,
> 100,> 100,> 100,> 100,"NC[C@H]1CC[C@H](C(=O)Nc2ccccn2)CC1 [Compound 7, Trans-4-aminomethyl-cyclohexanecarboxylic acid pyridin-2-ylamide]",,,,
> 100,4.98,12.2,> 100,"CC(C)(C)CC(N)c1ccc(C(=O)Nc2ccncc2)cc1 (centres unmarked) [Compound 25, 4-(1-amino-3,3-dimethyl-butyl)-N-pyridin-4-yl-benzamide dihydrochloric acid salt]",,,,
> 100,> 100,> 100,> 100,"CC(C)(C)C1CCC(C(=O)Nc2ccncc2)CC1 (centres unmarked) [Compound 2, 4-tert-butyl-cyclohexanecarboxylic acid pyridine-4-ylamide]",,,,
,,,,"4-aminomethyl-2,5-dimethyl-N-pyridin-4-yl-benzamide dihydrochloric acid salt [Compound 39]",> 100,8.3,16.8,> 100
> 100,> 100,> 100,> 100,"NCc1ccc(S(=O)(=O)Nc2ccncc2)cc1 [Compound 10, 4-aminomethyl-N-pyridin-4-yl-benzenesulfonamide]",,,,
> 100,> 100,> 100,> 100,CC(c1ccc(C(=O)Nc2ccncc2)cc1)N(C)C (centres unmarked) [Compound 17],,,,
> 100,> 100,> 100,> 100,"NCc1ccc(C(=O)Nc2ccncc2)o1 [Compound 15, 5-(amino-methyl)-furan-2-carboxylic acid pyridine-4-ylamide dihydrochloric acid salt]",,,,
> 100,62,53.5,> 100,"O=C(Nc1ccncc1)c1ccc(C2=NCCN2)cc1 [Compound 33, 4-(4,5-dihydro-1H-imidazol-2-yl)-N-pyridin-4-yl-benzamide]",,,,
> 100,> 100,> 100,> 100,"N/C(=N\O)c1ccc(C(=O)Nc2ccncc2)cc1 [Compound 12, 4-(N-pyridin-4-yl)-benzamide oxime]",,,,
> 100,3.7,8.04,> 100,"O=C(Nc1ccncc1)c1ccc(C2CCCCN2)cc1 (centres unmarked) [Compound 31, 4-piperidin-2-yl-N-pyridin-4-yl-benzamide dihydrochloric acid salt]",,,,
> 100,> 100,> 100,> 100,"NCc1cccc(C(=O)Nc2ccncc2)c1 [Compound 9, 3-aminomethyl-N-pyridin-4-yl-benzamide dihydrochloric acid salt]",,,,
30.7,1.6,2.2,> 100,"O=C(Nc1ccnc2[nH]ccc12)c1ccc(C2CCCCN2)cc1 (centres unmarked) [Compound 44, 4-piperidin-2-yl-N-(1H-pyrrolo[2,3pyridinedin-4-yl)-benzamidedihydrobromic acid salt]",,,,
> 30,0.65,2.91,25.4,"CCC(N)c1ccc(C(=O)Nc2ccncc2)cc1 (centres unmarked) [Compound 24, 4-(1-amino-propyl)-N-pyridin-4-yl-benzamide dihydrochloric acid salt]",,,,
11.3,0.4,0.77,> 100,"CC(N)c1ccc(C(=O)Nc2ccnc3[nH]ccc23)cc1 (centres unmarked) [Compound 41, 4-(1-amino-ethyl)-N-(1H-pyrrolo[2,3pyridinedin-4-yl)-benzamidedihydrochloric acid salt]",,,,
76,0.94,1.7,70,NC(c1ccc(C(=O)Nc2ccncc2)cc1)C1CCCC1 (centres unmarked) [Compound 27],,,,
> 100,> 100,> 100,> 100,"NCc1ccc(NCc2ccncc2)cc1 [Compound 11, (4-aminomethyl-phenyl)-pyridin-4-ylmethyl-amine dihydrochloric acid salt]",,,,
> 100,19.5,75,> 100,"O=C(Nc1ccncc1)c1ccc(C2=NCCCN2)cc1 [Compound 34, N-pyridin-4-yl-4-(1,4,5,6-tetrahydro-1H-pyrimidin-2-yl)-benzamide]",,,,
> 100,2.6,7.7,> 100,NC(c1ccc(C(=O)Nc2ccncc2)cc1)C1CCCCC1 (centres unmarked) [Compound 28],,,,
> 100,> 100,> 100,> 100,"NC[C@H]1CC[C@H](C(=O)Nc2cccnc2)CC1 [Compound 6, Trans-4-aminomethyl-cyclohexanecarboxylic acid pyridin-3-ylamide]",,,,
35.9,0.72,3.9,41.5,NC(c1ccc(C(=O)Nc2ccncc2)cc1)C1CC1 (centres unmarked) [Compound 26],,,,
> 100,8.04,11.3,> 100,"NC(c1ccccc1)c1ccc(C(=O)Nc2ccncc2)cc1 (centres unmarked) [Compound 35, 4-(1-amino-phenyl-methyl)-N-pyridin-4-yl-benzamide]",,,,
> 100,> 100,> 100,> 100,"CC(O)c1ccc(C(=O)Nc2ccncc2)cc1 (centres unmarked) [Compound 8, 4-(1-hydroxy-ethyl)-N-pyridin-4-yl-benzamide]",,,,
> 100,1.21,2.25,22.1,"CC(N)c1ccc(C(=O)Nc2ccncc2)cc1 (centres unmarked) [Compound 23, 4-(1-amino-ethyl)-N-pyridin-4-yl-benzamide dihydrochloric acid salt]",,,,
> 100,> 100,> 100,> 100,"NCc1ccc(-c2nc(-c3ccncc3)no2)cc1 [Compound 13, 4-(3-pyridin-4-yl-[1,2,4]oxadiazol-5-yl-benzylaminedihydrochloric acid salt]",,,,
> 100,> 100,> 100,> 100,"NC[C@H]1CC[C@H](C(=O)Nc2ccc(F)cc2)CC1 [Compound 4, Trans-4-aminomethyl-cyclohexanecarboxylic acid (4-fluoro-phenyl)-amide hydrochloric acid salt]",,,,
,3.9,3.2,> 100,"CC(N)c1ccc(C(=O)Nc2ccnc3[nH]ccc23)s1 (centres unmarked) [Compound 40, 5-(1-amino-ethyl)-thiophene-2-carboxylic acid N-(1H-pyrrolo[2,3pyridinedin-4-yl)-benzamidedihydrochloric acid salt]",,,,
